22 compounds from patent publication US20230382925A1, “MODULATORS OF CYSTIC FIBROSIS TRANSMEMBRANE CONDUCTANCE REGULATOR” (VERTEX PHARMACEUTICALS INCORPORATED, priority 2020, published 2023) can be followed below.

A word on the EC50: it is the concentration at which the effect is half-maximal.

Where two headings read alike, the source gives them in different places.

For this test, the target named is CFTR (Homo sapiens, UniProt P13569). Put plainly: Membrane Potential Dye, Enteroid Assay B. Format: cell-based. The method in brief:
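Human intestinal enteroid cells exposed to compound 18-24 h at 37 °C, then loaded with methyl oxonol membrane-potential dye plus CaCC blockers. Chloride transport triggered in chloride-free buffer with 10 μM forskolin, 100 μM IBMX, 300 nM Compound III; fluorescence read 15 min, expressed as % of triple-corrector/potentiator combination control.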

Where [1] appears, read: Table 10, read-out: Ent. B EC50.

Chain of CFTR (P13569 with tags, fused parts or gaps DEL508-508): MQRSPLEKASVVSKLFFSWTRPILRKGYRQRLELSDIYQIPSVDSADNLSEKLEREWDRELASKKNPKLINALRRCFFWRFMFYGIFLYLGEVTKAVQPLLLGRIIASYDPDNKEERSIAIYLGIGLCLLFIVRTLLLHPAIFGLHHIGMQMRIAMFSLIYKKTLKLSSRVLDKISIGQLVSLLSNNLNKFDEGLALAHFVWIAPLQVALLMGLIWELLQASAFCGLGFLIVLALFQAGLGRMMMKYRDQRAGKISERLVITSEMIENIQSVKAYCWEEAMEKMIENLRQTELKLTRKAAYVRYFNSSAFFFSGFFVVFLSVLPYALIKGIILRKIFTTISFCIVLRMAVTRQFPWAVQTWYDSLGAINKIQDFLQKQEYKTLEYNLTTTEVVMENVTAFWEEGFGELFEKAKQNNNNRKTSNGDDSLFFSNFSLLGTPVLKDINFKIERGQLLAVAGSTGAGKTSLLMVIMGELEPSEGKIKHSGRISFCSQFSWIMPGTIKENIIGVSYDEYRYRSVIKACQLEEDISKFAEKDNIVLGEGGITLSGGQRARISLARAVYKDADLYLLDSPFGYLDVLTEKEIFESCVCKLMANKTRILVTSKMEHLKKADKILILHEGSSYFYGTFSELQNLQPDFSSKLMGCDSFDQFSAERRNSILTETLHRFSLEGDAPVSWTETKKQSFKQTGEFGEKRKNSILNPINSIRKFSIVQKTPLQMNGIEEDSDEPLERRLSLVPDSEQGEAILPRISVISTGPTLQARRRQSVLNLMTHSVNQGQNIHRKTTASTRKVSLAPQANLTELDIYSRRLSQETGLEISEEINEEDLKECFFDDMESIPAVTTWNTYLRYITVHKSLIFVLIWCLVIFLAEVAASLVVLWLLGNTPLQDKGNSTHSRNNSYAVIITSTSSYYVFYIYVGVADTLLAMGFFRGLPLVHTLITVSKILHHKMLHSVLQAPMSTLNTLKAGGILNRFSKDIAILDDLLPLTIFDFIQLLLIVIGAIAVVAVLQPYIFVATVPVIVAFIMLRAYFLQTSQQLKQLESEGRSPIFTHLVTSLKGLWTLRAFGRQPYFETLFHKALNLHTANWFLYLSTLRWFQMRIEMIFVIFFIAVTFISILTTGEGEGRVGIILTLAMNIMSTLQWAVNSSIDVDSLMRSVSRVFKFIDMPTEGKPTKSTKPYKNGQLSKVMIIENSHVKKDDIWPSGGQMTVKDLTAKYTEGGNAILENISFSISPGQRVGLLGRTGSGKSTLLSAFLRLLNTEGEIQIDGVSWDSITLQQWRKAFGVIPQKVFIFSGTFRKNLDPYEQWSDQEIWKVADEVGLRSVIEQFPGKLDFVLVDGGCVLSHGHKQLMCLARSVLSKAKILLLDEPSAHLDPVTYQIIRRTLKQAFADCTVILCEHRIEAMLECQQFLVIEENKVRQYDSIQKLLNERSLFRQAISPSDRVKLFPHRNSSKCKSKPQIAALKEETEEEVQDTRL

In the case of `Cc1cccc(C)c1-c1cc2nc(n1)NS(=O)(=O)c1cccc(c1)C(=O)N(C1CC3(COC(=O)N3)C1)[C@H](CC(C)C)CO2` (some centres unmarked) [Compound 255], the “Ent. B Max Activity (%)” value (Table 10) is listed as “++ (++ is 30-60%)”. Moreover, under setting [1], the EC50 was < 1000 nM.

For the compound `Cc1cccc(C)c1-c1cc2nc(n1)NS(=O)(=O)c1cccc(c1)C(=O)N(C1CC3(CC(N(C)C)C3)C1)[C@H](CC(C)(C)C)CO2` (some centres unmarked) [Compound 461], the “Ent. B Max Activity (%)” value (Table 9) is listed as “+++ (+++ is >60%)”. In addition, the EC50 (Table 9, read-out: Ent. B EC50) was < 1000 nM.

Take `COC(=O)NC[C@H]1C[C@@H](N2C(=O)c3cccc(c3)S(=O)(=O)Nc3nc(cc(-c4c(C)cccc4C)n3)OC[C@H]2CC(C)C)C1` (stereo in doubt) [Compound 264]: the “Ent. B Max Activity (%)” value (Table 9) is “+++ (+++ is >60%)”. Further, the EC50 (Table 9, read-out: Ent. B EC50) was < 1000 nM.

On to `Cc1cccc(C)c1-c1cc2nc(n1)NS(=O)(=O)c1cccc(c1)C(=O)N(C1CS(=O)(=O)C1)[C@H](CC(C)C)CO2` [Compound 41, (11R)-6-(2,6-Dimethylphenyl)-12-(1,1-dioxothietan-3-yl)-11-isobutyl-2,2-dioxo-9-oxa-2λ^6-thia-3,5,12,19-tetrazatricyclo[12.3.1.14,8]nonadeca-1(18),4(19),5,7,14,16-hexaen-13-one], for which the “Ent. B Max Activity (%)” value (Table 10) is reported as “+++ (+++ is >60%)”. For the same compound, the EC50 under setting [1] was < 1000 nM.

On to `Cc1cccc(C)c1-c1cc2nc(n1)NS(=O)(=O)c1cccc(c1)C(=O)N([C@H]1C[C@@H](N3CCOC3=O)C1)[C@H](CC(C)(C)C)CO2` (single isomer, unassigned) [Compound 167], for which the “Ent. B Max Activity (%)” value (Table 10) is on record as “++ (++ is 30-60%)”. The EC50 under setting [1] was < 1000 nM.

As to `Cc1cccc(C)c1-c1cc2nc(n1)NS(=O)(=O)c1cccc(c1)C(=O)N(C1CCC3(CC1)CC3)C[C@@H](C)O2` [Compound 442], the “Ent. B Max Activity (%)” value is “++ (++ is 30-60%)”. Also, the EC50 (read-out: Ent. B EC50) is < 1000 nM.

Turning to `COC(=O)NC1CC2(C1)CC(N1C(=O)c3cccc(c3)S(=O)(=O)Nc3nc(cc(-c4c(C)cccc4C)n3)OC[C@H]1CC(C)(C)C)C2` (single isomer, unassigned) [Compound 91], the “Ent. B Max Activity (%)” value (Table 9) was “+++ (+++ is >60%)”. Further, the EC50 (Table 9, read-out: Ent. B EC50) was < 1000 nM.

As for `Cc1cccc(C)c1-c1cc2nc(n1)NS(=O)(=O)c1cccc(c1)C(=O)N(C1CC(OC(F)(F)F)C1)[C@H](CC(C)C)CO2` (stereo in doubt) [Compound 213], for the setting “Table 9”, the “Ent. B Max Activity (%)” value is recorded as “+++ (+++ is >60%)”. For the same compound, the EC50 (Table 9, read-out: Ent. B EC50) is < 1000 nM.

Regarding `Cc1cccc(C)c1-c1cc2nc(n1)NS(=O)(=O)c1cccc(c1)C(=O)N(C1CC(CO)(C(C)(C)O)C1)[C@H](CC(C)(C)C)CO2` (single isomer, unassigned) [Compound 159], the “Ent. B Max Activity (%)” value (Table 10) is reported as “+++ (+++ is >60%)”. In addition, the 50% effective concentration (EC50) under setting [1] is < 1000 nM.

As to `Cc1cccc(C)c1-c1cc2nc(n1)NS(=O)(=O)c1cccc(c1)C(=O)N(C1CC(NC(=O)OC(C)(C)C)C1)[C@H](CC(C)(C)C(F)(F)F)CO2` (single isomer, unassigned) [Compound 193], the “Ent. B Max Activity (%)” value (Table 9) was “+++ (+++ is >60%)”. For the setting “Table 9, read-out: Ent. B EC50”, the half-maximal effective concentration (EC50) is < 1000 nM.

As for `Cc1cccc(C)c1-c1cc2nc(n1)NS(=O)(=O)c1cccc(c1)C(=O)N([C@H]1C[C@@H](N3C[C@@H](C)O[C@@H](C)C3)C1)[C@H](CC(C)C)CO2` [Compound 380], the “Ent. B Max Activity (%)” value (Table 9) is given as “+++ (+++ is >60%)”. The 50% effective concentration (EC50) (Table 9, read-out: Ent. B EC50) was < 1000 nM.

Turning to `Cc1cccc(C)c1-c1cc2nc(n1)NS(=O)(=O)c1cccc(c1)C(=O)N(C1CC3(CCN(C(=O)[C@@H](C)O)CC3)C1)[C@H](CC(C)C)CO2` [Compound 455], the “Ent. B Max Activity (%)” value (Table 9) was “+++ (+++ is >60%)”. In addition, the EC50 (Table 9, read-out: Ent. B EC50) was < 1000 nM.

As to `CCC(O)(CC)[C@H]1CC2(C[C@H](N3C(=O)c4cccc(c4)S(=O)(=O)Nc4nc(cc(-c5c(C)cccc5C)n4)OC[C@H]3CC(C)(C)C)C2)C1` (some centres unmarked) [Compound 409], the “Ent. B Max Activity (%)” value (Table 10) is “+++ (+++ is >60%)”. The half-maximal effective concentration (EC50) under setting [1] was < 1000 nM.

As to `COCCCN(C)[C@H]1C[C@@H](N2C(=O)c3cccc(c3)S(=O)(=O)Nc3nc(cc(-c4c(C)cccc4C)n3)OC[C@H]2CC(C)C)C1` (stereo in doubt) [Compound 379], for the setting “Table 9”, the “Ent. B Max Activity (%)” value is recorded as “+++ (+++ is >60%)”. Also, the EC50 (Table 9, read-out: Ent. B EC50) is < 1000 nM.

Turning to `Cc1cccc(C)c1-c1cc2nc(n1)NS(=O)(=O)c1cccc(n1)C(=O)N(C1CC3(CC(C(=O)N(C)C)C3)C1)[C@H](CC(C)(C)C)CO2` (some centres unmarked) [Compound 414], the “Ent. B Max Activity (%)” value (Table 10) is reported as “+++ (+++ is >60%)”. For the same compound, the EC50 under setting [1] is < 1000 nM.

Take `COC(=O)N[C@H]1C[C@@H](N2C(=O)c3cccc(c3)S(=O)(=O)Nc3nc(cc(-c4c(C)cccc4C)n3)OC[C@H]2CC(C)C)C1` [Compound 368]: the “Ent. B Max Activity (%)” value (Table 9) is reported as “+++ (+++ is >60%)”. The half-maximal effective concentration (EC50) (Table 9, read-out: Ent. B EC50) is < 1000 nM.

Take `COCCN[C@H]1C[C@@]2(C1)C[C@H](N1C(=O)c3cccc(c3)S(=O)(=O)Nc3nc(cc(-c4c(C)cccc4C)n3)OC[C@H]1CC1(C(F)(F)F)CC1)C2` (some centres unmarked) [Compound 269]: the “Ent. B Max Activity (%)” value (Table 9) is “+++ (+++ is >60%)”. Also, the concentration for a half-maximal effect (EC50) (Table 9, read-out: Ent. B EC50) is < 1000 nM.

With `Cc1cccc(C)c1-c1cc2nc(n1)NS(=O)(=O)c1cccc(c1)C(=O)N(C1CC(N(C)[C@H](C)C(F)(F)F)C1)[C@H](CC(C)C)CO2` (stereo partly drawn) [Compound 68, (11R)-6-(2,6-Dimethylphenyl)-11-isobutyl-12-[3-[methyl-[(1R)-2,2,2-trifluoro-1-methyl-ethyl]amino]cyclobutyl]-2,2-dioxo-9-oxa-2λ^6-thia-3,5,12,19-tetrazatricyclo[12.3.1.14,8]nonadeca-1(18),4(19),5,7,14,16-hexaen-13-one], the “Ent. B Max Activity (%)” value (Table 9) was “++ (++ is 30-60%)”. Besides, the EC50 (Table 9, read-out: Ent. B EC50) was < 1000 nM.

Consider `Cc1cccc(C)c1-c1cc2nc(n1)NS(=O)(=O)c1cccc(c1)C(=O)N(C1CC(C)(OC(F)(F)F)C1)[C@H](CC(C)C)CO2` (stereo partly drawn) [Compound 49, (11R)-6-(2,6-dimethylphenyl)-11-isobutyl-12-[3-methyl-3-(trifluoromethoxy)cyclobutyl]-2,2-dioxo-9-oxa-2λ^6-thia-3,5,12,19-tetrazatricyclo[12.3.1.14,8]nonadeca-1(18),4(19),5,7,14,16-hexaen-13-one], for which, under “Table 10”, the “Ent. B Max Activity (%)” value is on record as “++ (++ is 30-60%)”. Further, under setting [1], the EC50 is < 1000 nM.

Turning to `Cc1cccc(C)c1-c1cc2nc(n1)NS(=O)(=O)c1cccc(c1)C(=O)N(C1CC3(COC(=O)N3)C1)[C@H](CC(C)C)CO2` (some centres unmarked) [Compound 256], the “Ent. B Max Activity (%)” value (Table 10) is reported as “++ (++ is 30-60%)”. For the same compound, the EC50 under setting [1] was < 1000 nM.

Regarding `Cc1cccc(C)c1-c1cc2nc(n1)NS(=O)(=O)c1cccc(c1)C(=O)N([C@H]1C[C@@H](CN(C)C)C1)[C@H](CC(C)C)CO2` (single isomer, unassigned) [Compound 105], the “Ent. B Max Activity (%)” value (Table 9) is “+++ (+++ is >60%)”. For the same compound, under “Table 9, read-out: Ent. B EC50”, the concentration for a half-maximal effect (EC50) is < 1000 nM.

`Cc1cccc(C)c1-c1cc2nc(n1)NS(=O)(=O)c1cccc(c1)C(=O)N(C1CC3(CC(O)C3)C1)[C@H](CC(C)(C)C)CO2` (single isomer, unassigned) [Compound 121]: the “Ent. B Max Activity (%)” value (Table 10) was “+++ (+++ is >60%)”. Further, the concentration giving a half-maximal response (EC50) under setting [1] is < 1000 nM.
